Key:
[1] = Linear Polarisation Resistance (LPR) Bubble test, corrosion rate
Procedure: The corrosion inhibition (CI) performance of compounds and compositions of the invention and the performance of comparative examples was tested by means of Linear Polarisation Resistance (LPR) Bubble test measurements.
In general, the LPR Bubble test method uses a test cell, typically made from glass, which is fitted with a probe containing electrodes which are connected to an electrochemical measurement system and associated software. The cell is also fitted with a gas inlet and frit to allow constant purging with CO2 gas. The cell can be loaded with test fluids, typically brine or a combination of brine and a suitable oil phase. The liquids may be stirred, typically at low or moderate speeds, or may be static. The instantaneous rate of corrosion can be measured throughout the experiment by means of the electrochemical probe which extends into the water phase. Other experiments, such as a cyclic sweep, or cyclic polarisation measurement, can also be performed.
In our experiments, the LPR cells were loaded with 95 parts of water (brine) and 5 parts kerosene. The test temperature was 50° C. in all experiments, while details of the water phase pH values relevant to each water composition are given in this Table. The cells were continuously purged with CO2 gas and a stirring speed of 100 rpm was used.
To perform the test, the electrode was allowed to pre-corrode for 2 hours, after which a test corrosion inhibitor composition was added to the kerosene phase. The test was then continued for a total of approximately 14 hours.

[2] = system: Skeletonema costatum; assay: ISO 10253 1998 water quality marine algal growth inhibition test; type: cell-based
Procedure: Toxicity (EC50) was measured by a standard test: ISO 10253 1998 water quality—marine algal growth inhibition test with Skeletonema costatum.

[3] = standard testing procedures for biodegradability
[4] = Brine B, 50° C., 10 ppm test chemical with sodium thiosulfate
[5] = Table 5, Brine A, 10 ppm, blends also contain ethoxylated fatty acid ester and Na thiosulfate

## Na Oleyl amphoacetate
[1]; Brine A, 50° C., 10 ppm test chemical with sodium thiosulfate
  % Inhibition: 96.81%
[1]; Brine A, 50° C., 10 ppm test chemical with sodium thiosulfate, 95:5 brine:kerosene, CO2 purge
  Final corrosion rate: 0.12 mmpy
[1]; [4]
  % Inhibition: >99.99%
  Final corrosion rate: 0.00014 mmpy
[2]
  Algae toxicity (EC50): 2.0 µg/mL

## CCCCCCCCCC[N+](C)(C)CCCCCCCCCC [Mixture E]
[1]; [5]
  % Inhibition: 99.8%
  Final corrosion rate: 0.009 mmpy

## O=C([O-])c1ccccc1.[Na+] [sodium benzoate]
[3]; after 7 days
  biodegraded: about 85.5%
[3]; after 14 days
  biodegraded: about 95%
[3]; after 28 days
  biodegraded: 100%

Source: patent US10000641B2, “Method and composition for preventing corrosion of metal surfaces” (Ecolab USA Inc., priority 2010, dated 2018)
